Reference: patent US20240400638A1, “COMBINATION OF RELAXIN AND VASOPRESSIN ANALOGUES FOR TREATMENT OF RENAL DISORDERS OR CONDITIONS” (River 2 Renal Corp., priority 2021, published 2024)
Read-outs that look alike come from different tables or passages of the source. Numbered stars: 1 amine (or outer) side, 2 acyl side, 3 side chain; on linkers, the order of the positions; unused ones are H or OH. Square brackets hold non-standard residues; d marks the D form. Side chains are listed from the residue outwards. Peptide text beside a SMILES is read from it. * marks the point of attachment. X1 = CCCCCCCCCCCCCCCC(=O)N[C@@H](CCC(=O)N[C@@H](CCC(=O)N[C@@H](CCC(=O)NCCCOCCOCCOCCCNC(=O)CCC(=O)NCCCOCCOCCOCCCNC(=O)CCC(=O)NCCCOCCOCCOCCCN*)C(=O)O)C(=O)O)C(=O)O; Suc = O=C(CCC(=O)[*:2])[*:1]; αMeK = C[C@](N)(CCCCN)C(=O)O; Aib = CC(C)(N)C(=O)O

Tests used:
Format in all cases: in vivo, human
[1] = Phase 1 SAD/MAD study in healthy volunteers: pharmacokinetics; settings: for AUC(0-t): read-out: AUC0-24
Procedure: (§1) Described in this Example is a Phase 1, randomized, double-blind, pacebo controlled trial for assessing safety, tolerability, PK, and PD of a Relaxin Agonist (i.e., Relaxin peptide analogue of SEQ ID NO: 3).
(§2) The SAD part A was a SAD study with a total of 40 subjects (n=8 per cohort; 6 to Relaxin Agonist and 2 to placebo) to be enrolled sequentially in up to 5 cohorts (Cohorts A1 to A5). Four cohorts received a dose via SC injection only and 1 cohort (Cohort A2, 4.0 mg) was dosed via both SC and IV injection, with at least 2-week washout period between SC and IV injections. The 4.0 mg dosing cohort (Cohort A2) received the IV dose after the 12.0 mg SC cohort (Cohort A3) was completed. Subjects in each cohort received 1 of 5 dose levels (1.0 mg, 4.0 mg, 12.0 mg, 24.0 mg, and 48.0 mg) or matching placebo as follows: • Cohort A1: a single SC dose of 1.0 mg Relaxin Agonist (n=6) or matching placebo (n=2) • Cohort A2: Period 1 a single SC dose of 4.0 mg Relaxin Agonist (n=6) or matching placebo (n=2) • Cohort A2: Period 2 a single 15-min IV dose of 4.0 mg Relaxin Agonist (n=6) or matching placebo (n=2) • Cohort A3: a single SC dose of 12.0 mg Relaxin Agonist (n=6) or matching placebo (n=2) • Cohort A4: a single SC dose of 24.0 mg Relaxin Agonist (n=6) or matching placebo (n=2) • Cohort A5: a single SC dose of 48.0 mg Relaxin Agonist (n=6) or matching placebo (n=2)
(§3) In the MAD part B of the study, a total of 24 subjects (n=8 per cohort; 6 to Relaxin Agonist and 2 to placebo) were enrolled sequentially (Cohorts B1 to B3) with subjects within a cohort being enrolled in a parallel fashion. Cohorts B1 to B3 receive one of 3 SC doses (5.0 mg, 15.0 mg, 30.0 mg once daily [QD]) as follows: • Cohort B1: 5.0 mg SC Relaxin Agonist (n=6) or matching placebo (n=2) QD for 14 days • Cohort B2: 15.0 mg SC Relaxin Agonist (n=6) or matching placebo (n=2) QD for 14 days • Cohort B3: 30.0 mg SC Relaxin Agonist (n=6) or matching placebo (n=2) QD for 14 days
After 24 mg and 48 mg sc doses, higher than dose-proportional exposures were observed (approximately 15% higher than expected).
Therefore, after sc administration, the absolute bioavailability (F) is approximately 0.76.
Preliminary PK results after single and multiple ascending doses of Relaxin Agonist administered subcutaneously (sc) are summarized in Table 6. For all dose regimens (5 mg, 15 mg, and 30 mg), an accumulation of approximately 2.6-fold was observed on Day 14.

[2] = Phase 1 SAD/MAD study in healthy volunteers: safety and tolerability
Procedure: as §1, §2
In this first-in-human study, the subjects in all SAD cohorts were dosed according to a sentinel dosing design to ensure optimal safety. This meant that initially 2 subjects were dosed: 1 subject with Relaxin Agonist and 1 subject with placebo. If at the lowest dose level (Cohort A1) the safety and tolerability results of the first 48 h following dosing for the initial subjects was acceptable to the Investigator, the other 6 subjects (5 active and 1 placebo) were to be dosed. In Cohorts A2 to A5, the safety and tolerability results of the first 24 h following dose administration were evaluated in the first 2 subjects before the remainder of the subjects in that cohort are dosed.
as §3

[3] = Phase 1 single dose study in severe renal impaired and normal renal function subjects: pharmacokinetics; settings: for AUC(0-inf) / Cmax: human, in vivo, sc, 4 mg, single 4.0 mg sc; for AUC(0-inf): read-out: AUCINF_pred
Text: (§4) This study is an open label, phase 1, multi-centre, single dose study in severe renal impaired subjects and in matched subjects with normal renal function. In this preliminary evaluation, five subjects with severe renal impairment and two subjects with normal renal function were included.
This study is a Phase 1, multi-center, single dose study in severe renal impaired subjects and in matched subjects with normal renal function. Five subjects with severe renal impairment and two subjects with normal renal function were included. PK sampling was performed predose and at 1, 2, 3, 4, 6, 8, 10, 12, 24, 48, 72, 96, and 120 h postdose.

[4] = Phase 1 single dose study in severe renal impaired and normal renal function subjects: safety; settings: single sc 4.0 mg
Text: as §4

[5] = part B: once daily sc 5.0, 15.0, 30 mg for 14 days
[6] = severe renal impaired group compared to normal group and SAD 4 mg group

AUCinf after iv administration as compared to sc administration ([1]; 4 mg single dose iv vs sc): ~1.3 fold
Cmax after iv administration as compared to sc administration ([1]; 4 mg single dose iv vs sc): approximately 3.5 fold
accumulation ([1]; Day 14, all dose regimens (5 mg, 15 mg, 30 mg sc QD)): approximately 2.6 fold
exposure higher than expected (higher than dose-proportional) ([1]; after 24 mg and 48 mg sc single doses): approximately 15%
bioavailability ([1]; human, in vivo, 4 mg, after sc administration, read-out: absolute bioavailability (F)): ~76%
Cmax ([1]; human, in vivo, iv, 4 mg, Group A2, single 4.0 mg iv, mean, N=6, read-out: Cmax): 1240 ng/mL
Cmax ([1]; human, in vivo, sc, 1 mg, Group A1, single 1.0 mg sc, mean, N=6, read-out: Cmax): 82.9 ng/mL
Cmax ([1]; human, in vivo, sc, 4 mg, Group A2, single 4.0 mg sc, mean, N=6, read-out: Cmax): 356 ng/mL
AUC(0-t) ([1]; human, in vivo, sc, 5 mg, Group B1, 5 mg sc QD, Day 1, mean, N=6): 7790 ng·h/mL
Cmax ([1]; human, in vivo, sc, 5 mg, Group B1, 5 mg sc QD, Day 1, mean, N=6, read-out: Cmax): 384 ng/mL
Cmax ([1]; human, in vivo, sc, 5 mg, Group B1, 5 mg sc QD, Day 14, mean, N=6, Table 6, read-out: Cmax): 1020 ng/mL
Cmax ([1]; human, in vivo, sc, 5 mg, Group B1, 5 mg sc QD, Day 14, mean, N=6, Table 7, read-out: Cmax): 1020 ng/mL
AUC(0-t) ([1]; human, in vivo, sc, 5 mg, Group B1, 5 mg sc QD, Day 14, mean, N=6): 21600 ng·h/mL
Cmax ([1]; human, in vivo, sc, 12 mg, Group A3, single 12.0 mg sc, mean, N=6, read-out: Cmax): 1000 ng/mL
AUC(0-t) ([1]; human, in vivo, sc, 15 mg, Group B2, 15 mg sc QD, Day 1, mean, N=6): 29600 ng·h/mL
Cmax ([1]; human, in vivo, sc, 15 mg, Group B2, 15 mg sc QD, Day 1, mean, N=6, read-out: Cmax): 1630 ng/mL
Cmax ([1]; human, in vivo, sc, 15 mg, Group B2, 15 mg sc QD, Day 14, mean, N=6, Table 6, read-out: Cmax): 3630 ng/mL
Cmax ([1]; human, in vivo, sc, 15 mg, Group B2, 15 mg sc QD, Day 14, mean, N=6, Table 7, read-out: Cmax): 3630 ng/mL
AUC(0-t) ([1]; human, in vivo, sc, 15 mg, Group B2, 15 mg sc QD, Day 14, mean, N=6): 67200 ng·h/mL
Cmax ([1]; human, in vivo, sc, 24 mg, Group A4, single 24.0 mg sc, mean, N=6, read-out: Cmax): 2360 ng/mL
AUC(0-t) ([1]; human, in vivo, sc, 30 mg, Group B3, 30 mg sc QD, Day 1, mean, N=6): 38400 ng·h/mL
Cmax ([1]; human, in vivo, sc, 30 mg, Group B3, 30 mg sc QD, Day 1, mean, N=6, read-out: Cmax): 2010 ng/mL
Cmax ([1]; human, in vivo, sc, 30 mg, Group B3, 30 mg sc QD, Day 14, mean, N=6, Table 6, read-out: Cmax): 6010 ng/mL
Cmax ([1]; human, in vivo, sc, 30 mg, Group B3, 30 mg sc QD, Day 14, mean, N=6, Table 7, read-out: Cmax): 6010 ng/mL
AUC(0-t) ([1]; human, in vivo, sc, 30 mg, Group B3, 30 mg sc QD, Day 14, mean, N=6): 118000 ng·h/mL
Cmax ([1]; human, in vivo, sc, 48 mg, Group A5, single 48.0 mg sc, mean, N=6, read-out: Cmax): 4560 ng/mL
Cmax ([1]; human, in vivo, subcutaneous, 4 mg, SAD study after 4 mg, read-out: Mean Cmax): 356 ng/mL
AUC(0-inf) ([1]; human, in vivo, Group A1, single 1.0 mg sc, mean, N=6): 3220 ng·h/mL
AUC(0-inf) ([1]; human, in vivo, Group A2, single 4.0 mg iv, mean, N=6): 19700 ng·h/mL
AUC(0-inf) ([1]; human, in vivo, Group A2, single 4.0 mg sc, mean, N=6): 15000 ng·h/mL
AUC(0-inf) ([1]; human, in vivo, Group A3, single 12.0 mg sc, mean, N=6): 37100 ng·h/mL
AUC(0-inf) ([1]; human, in vivo, Group A4, single 24.0 mg sc, mean, N=6): 78600 ng·h/mL
AUC(0-inf) ([1]; human, in vivo, Group A5, single 48.0 mg sc, mean, N=6): 178000 ng·h/mL
AUC(0-inf) ([1]; human, in vivo, Group B1, 5 mg sc QD, Day 14, mean, N=6): 50300 ng·h/mL
half-life ([1]; human, in vivo, Group B1, 5 mg sc QD, Day 14, mean, N=6, read-out: T½ (converted)): 23.4 h
AUC(0-inf) ([1]; human, in vivo, Group B2, 15 mg sc QD, Day 14, mean, N=6): 143000 ng·h/mL
half-life ([1]; human, in vivo, Group B2, 15 mg sc QD, Day 14, mean, N=6, read-out: T½ (converted)): 22.9 h
AUC(0-inf) ([1]; human, in vivo, Group B3, 30 mg sc QD, Day 14, mean, N=6): 278000 ng·h/mL
half-life ([1]; human, in vivo, Group B3, 30 mg sc QD, Day 14, mean, N=6, read-out: T½ (converted)): 24.3 h
half-life ([1]; human, in vivo, sc multiple ascending doses, read-out: Terminal half life): 23 to 24 h
dose proportionality of exposures ([1]; multiple ascending sc doses, up to dose regimen of 30 mg): increased dose-proportionally
dose proportionality of exposures ([1]; single ascending sc doses, up to a dose of 12 mg): increased dose-proportionally
AUC(0-inf) ([3]; Normal renal function group, mean, N=2): 12900 ng·h/mL
Cmax ([3]; Normal renal function group, mean, N=2, read-out: Cmax): 302 ng/mL
AUC(0-inf) ([3]; Severe renal impairment group, mean, N=5): 17000 ng·h/mL
Cmax ([3]; Severe renal impairment group, mean, N=5, read-out: Cmax): 392 ng/mL
Cmax ([3]; normal group, read-out: Mean Cmax): 302 ng/mL
Cmax ([3]; severe renal impaired group, read-out: Mean Cmax): 392 ng/mL
increase of mean AUCinf [3, 6]: 14-31%
increase of mean Cmax [3, 6]: 10-30%
SMILES: CCCCCCCCCCCCCCCC(=O)N[C@@H](CCC(=O)N[C@@H](CCC(=O)N[C@@H](CCC(=O)NCCCOCCOCCOCCCNC(=O)CCC(=O)NCCCOCCOCCOCCCNC(=O)CCC(=O)NCCCOCCOCCOCCCNC(=O)CCC(=O)NCCCC[C@H](NC(=O)CNC(=O)[C@H](CCC(=O)O)NC(=O)C(C)(C)NC(=O)C(C)(C)NC(=O)[C@@H](NC(=O)[C@H](CCCCNC(C)=O)NC(=O)[C@H](C)NC(=O)[C@H](CCCNC(=N)N)NC(=O)[C@@H](NC(=O)[C@H](CCCCN)NC(=O)[C@H](CCC(=O)O)NC(=O)[C@H](CCCNC(=N)N)NC(=O)CNC(=O)[C@H](CCC(=O)O)NC(=O)[C@H](CC(C)C)NC(C)=O)C(C)C)[C@@H](C)CC)C(=O)N[C@@H](CO)C(=O)N[C@H](C(=O)N[C@@H](Cc1ccccc1)C(=O)N[C@@H](CO)C(=O)N[C@@](C)(CCCCN)C(=O)N[C@@H](CCCNC(=N)N)C(=O)N[C@@H](C)C(=O)N[C@@H](CCCCNC(C)=O)C(N)=O)[C@@H](C)O)C(=O)O)C(=O)O)C(=O)O [SEQ ID NO: 3, Ac-L-E-G-R-E-K-V-R-A-K(Ac)-I-Aib-Aib-E-G-K(TTDS-TTDS-TTDS-gE-gE-gE-Palm)-S--T-F-S-Mly-R-A-K(Ac)-NH2] (Ac-LEGREKVRAK(Ac)I[Aib][Aib]EGK([Suc-X1])STFS[αMeK]RAK(Ac)-NH2)
tolerability and safety ([2]; part A: single sc 1.0, 4.0, 12.0, 24, 48 mg and single iv 4.0 mg): well tolerated and safe
severity of reported adverse events ([2]; part A: single sc 1.0-48 mg and iv 4.0 mg): mild (grade 1)
severity of reported adverse events [2, 5]: mild (grade 1)
tolerability and safety [2, 5]: well tolerated and safe
tolerability and safety ([4]; 5 subjects severe renal impairment and 2 normal renal function): well tolerated and safe
severity of reported adverse events ([4]; two AEs (palpitation, headache) in one subject): grade 1 (mild)
